According to patent publication US6004933A, “Cysteine protease inhibitors” (Cortech Inc., priority 1998, dated 1999):
Like-named read-outs stand apart in the source and are kept apart here.

Experiments:
[1] = target: T1, ICE (Caspase 1) (Homo sapiens, UniProt P29466); test: Human whole blood assay: IL-1β release after LPS stimulation (assay for ICE inhibition); format: cell-based; settings: LPS 10 or 100 ug/ml, 4 hr, ELISA, read-out: IC50 of reduction of IL1β release in whole blood assay
T1 construct: endogenous in cells; host or cells: THP-1
T1 sequence (P29466 120-297 limits assumed): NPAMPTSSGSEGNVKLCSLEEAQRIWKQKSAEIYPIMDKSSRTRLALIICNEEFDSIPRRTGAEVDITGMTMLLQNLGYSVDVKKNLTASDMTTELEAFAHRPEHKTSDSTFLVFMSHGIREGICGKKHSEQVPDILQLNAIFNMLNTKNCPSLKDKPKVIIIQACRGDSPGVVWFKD
T1 sequence (P29466 317-404 limits assumed): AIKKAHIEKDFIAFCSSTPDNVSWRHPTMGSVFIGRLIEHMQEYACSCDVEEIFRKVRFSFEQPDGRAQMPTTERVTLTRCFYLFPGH
Text: (§1) To examine the ability of the caspase family inhibitors, CQ-0010 and CQ-0011, to inhibit human IL-1β production, two different assays were employed. In the first, the human monocytic cell line, THP-1, was stimulated with E. coli lipopolysaccharide (LPS serotype 0127-88; Sigma Chemical Co., St. Louis, Mo.) in the presence and absence of the inhibitors. This cell line synthesizes and secretes IL-1β and TNFα as well as other cytokines upon LPS stimulation. The second assay used freshly-isolated human whole blood similarly stimulated with LPS.
Heparinized whole blood (19.7 U heparin per ml) from healthy volunteers was collected and dispensed into 12×75 mm polystyrene tubes (0.25 ml per tube). The inhibitors, CQ-0010, CQ-0011 and Ac-YVAD-CHO were dissolved in DMSO, then diluted and added to the tubes in 0.25 ml and preincubated with the blood for 15 min at 37° C. LPS was then added to a final concentration of 10 or 100 ug/ml.
The tubes were loosely-capped and incubated in a water bath for 4 hr at 37° C. after which they were immersed briefly in an ice-water bath. Supernatants were harvested by centrifngation and stored at -70° C. The presence of TNFα and IL-1β was detected by commercially-available ELISA kits.

[2] = target: granzyme B (Homo sapiens, UniProt P10144); test: Granzyme B inhibition, photometric, Succ-AAPD-pNA; format: biochemical; settings: 20 μM Succ-AAPD-pNA, 1 mM DTT
Description: (§2) Inhibition constants were measured photometrically for YAMA (caspase 3), Lap3 (caspase 7), FLICE (caspase 8), Mch2 (caspase 6) and granzyme B. The buffer used for all enzymes consisted of 50 mM Hepes, 100 mM sodium chloride, 10% (v/v) sucrose, 0.1% (v/v) CHAPS and 10 mM dithiothreitol (DTT). In the case of granzyme B, only 1 mM DTT was used.
(§3) Enzymes were incubated at 37° C. for 10 minutes in 100 μL well plates and synthetic substrate and inhibitor were added simultaneously. Final substrate concentration was 20 μM in all cases. The synthetic substrate Ac-DEVD-pNA was used for all caspases and Succ-AAPD-pNA was used for granzyme B. The appearance of product was monitored over 10 minutes at 410 nm using a Spectromax 340 and IC50 curves were calculated from the initial slopes at varying inhibitor concentrations and inhibition constants were calculated.

[3] = target: T1, ICE (Caspase 1); test: THP-1 assay: IL-1β release after LPS stimulation (assay for ICE inhibition); format: cell-based; settings: for IC50: LPS 1 ug/ml, 4 hr, ELISA, read-out: IC50 of reduction of IL1β release from THP1 cell line
Text: as §1
(§4) Two×10^6 THP-1 cells were added to 24 well plates in 1 ml RPMI supplemented with 1% FCS, glutamine and 5×10^-5 M mercaptoethanol. Two-fold serial dilutions of the inhibitors, CQ-0010, CQ-0011 and the commmercially available Ac-YVAD-CHO (Biomol Research Laboratories Inc., Plymouth Meeting, Pa.), were preincubated with the cells for 15 min at 37° C. LPS was then added to a final concentration of 1 ug/ml and the plates incubated for 4 hr at 37° C. All incubations were carried out in a humidified incubator with 5% CO2 in air.
(§5) Supernatants were harvested after 4 hr and assayed by ELISA for the presence of TNFα and IL-1β using commercially available kits (PerSeptive Biosystems, Framingham, Mass. and R&D Systems, Minneapolis, Minn., respectively).

[4] = target: T2, Mch2 (Caspase 6) (Homo sapiens, UniProt P55212); test: Caspase inhibition, photometric, Ac-DEVD-pNA; format: biochemical; settings: 20 μM Ac-DEVD-pNA, 37° C.
T2 sequence (P55212 24-179 limits assumed): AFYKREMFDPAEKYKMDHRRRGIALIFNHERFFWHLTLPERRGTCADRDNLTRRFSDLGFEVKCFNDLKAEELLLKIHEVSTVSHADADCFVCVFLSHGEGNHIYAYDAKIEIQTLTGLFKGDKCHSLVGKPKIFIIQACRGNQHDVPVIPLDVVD
T2 sequence (P55212 194-293 limits assumed): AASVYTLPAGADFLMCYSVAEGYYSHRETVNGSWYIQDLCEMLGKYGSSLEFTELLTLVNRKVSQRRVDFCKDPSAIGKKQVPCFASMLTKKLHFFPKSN
Description: as §2, §3

[5] = target: T3, YAMA (CPP32, Caspase 3) (Homo sapiens, UniProt P42574); test: Caspase inhibition, photometric, Ac-DEVD-pNA; format: biochemical; settings: 20 μM Ac-DEVD-pNA, 37° C.
T3 sequence (P42574 29-175 limits assumed): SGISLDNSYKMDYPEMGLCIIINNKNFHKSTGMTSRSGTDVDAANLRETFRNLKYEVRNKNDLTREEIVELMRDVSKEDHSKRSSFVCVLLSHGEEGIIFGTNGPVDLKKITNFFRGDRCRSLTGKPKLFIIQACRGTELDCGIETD
T3 sequence (P42574 176-277 limits assumed): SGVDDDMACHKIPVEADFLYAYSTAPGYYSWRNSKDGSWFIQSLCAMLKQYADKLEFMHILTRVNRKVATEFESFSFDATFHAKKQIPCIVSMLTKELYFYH
Description: as §2, §3

[6] = target: FLICE (Mch5, Caspase 8) (Homo sapiens, UniProt Q14790); test: Caspase inhibition, photometric, Ac-DEVD-pNA; format: biochemical
Description: as §2, §3

[7] = target: T4, Lap3 (Mch3, Caspase 7) (Homo sapiens, UniProt P55210); test: Caspase inhibition, photometric, Ac-DEVD-pNA; format: biochemical; settings: 20 μM Ac-DEVD-pNA, 37° C.
T4 sequence (P55210 24-198 limits assumed): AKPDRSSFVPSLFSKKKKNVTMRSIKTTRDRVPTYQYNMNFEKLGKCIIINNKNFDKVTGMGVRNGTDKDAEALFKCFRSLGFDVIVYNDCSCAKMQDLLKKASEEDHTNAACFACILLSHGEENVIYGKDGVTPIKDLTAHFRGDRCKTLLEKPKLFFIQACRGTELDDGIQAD
T4 sequence (P55210 207-303 limits assumed): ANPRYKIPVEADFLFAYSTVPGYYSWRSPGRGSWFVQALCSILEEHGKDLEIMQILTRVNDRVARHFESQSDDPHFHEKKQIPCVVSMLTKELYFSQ
Description: as §2, §3

[8] = target: T5, cathepsin B (Homo sapiens, UniProt P07858); test: Cathepsin B inhibition, fluorometric assay with Cbz-Phe-Arg-NHMec; format: biochemical; settings: human enzyme; IC50 at substrate << Km taken as Ki; pH 6
T5 construct: purchased Calbiochem (San Diego, Calif.)
Text: (§6) The enzyme cathepsin B (E.C. 3.4.22.01) was obtained from Calbiochem (San Diego, Calif.); cathepsin L (E.C. 3.4.22.15) from Athens Research and Technology Inc. (Athens,Ga.); and papain (E.C. 3.4.22.02) from Sigma (St. Louis, Mo.).
(§7) Cbz-Phe-Arg-NHMec (--NHMec: 7-(4-methyl)coumarylamide) was obtained from BachemCalifornia, Inc. (Torrance, Calif.). All other reagents were obtained from Sigma.
(§8) The enzymes used in enzyme assays with methylcoumarylamides were activated as described elsewhere (Barret, et al., Methods Enzymol. 80:535-561 (1981); Bromme, et al., Biochem. J, 264: 475-481 (1989). Cathepsin L was assayed in 0.34 M sodium acetate buffer, pH 5.5, containing 0.1% (v/v) Brij 35, 2.5 mM dithiothreitol (DTT) and 5 mM Na2 -EDTA. Cathepsin B was assayed under the same conditions, except that the buffer was adjusted to pH 6. Papain was assayed in 50 mM sodium phosphate buffer, pH 6.8, containing 0.2 M sodium chloride, 2 mM DTT, 1 mM Na2 -EDTA and 0.025% Brij 35 (v/v).
(§9) Initial velocities of enzymatic reactions were measured spectrofluorometrically (λex =370 nm, λem 460 nm) with a Quanta Master QM1 (Photon Technologies International, South Brunswick, N.J.). Stock solutions of the enzymes were diluted into the buffer, equilibrated at room temperature, and preincubated without or with increasing concentrations of inhibitors. The reactions were started by addition of substrate. A total of 4 to 8 inhibitor concentrations were used to determine IC50 values. In all cases the substrate concentrations were much smaller than the Km value, and the IC50 values measured approximated the Ki directly (Cheng, et al., Biochemical Pharmacology, 22:3099-3108 (1973)).

[9] = target: T6, papain (Carica papaya, UniProt P00784); test: Papain inhibition, fluorometric assay with Cbz-Phe-Arg-NHMec; format: biochemical; settings: IC50 at substrate << Km taken as Ki; pH 6.8
T6 construct: purchased Sigma (St. Louis, Mo.)
T6 sequence (P00784 134-345): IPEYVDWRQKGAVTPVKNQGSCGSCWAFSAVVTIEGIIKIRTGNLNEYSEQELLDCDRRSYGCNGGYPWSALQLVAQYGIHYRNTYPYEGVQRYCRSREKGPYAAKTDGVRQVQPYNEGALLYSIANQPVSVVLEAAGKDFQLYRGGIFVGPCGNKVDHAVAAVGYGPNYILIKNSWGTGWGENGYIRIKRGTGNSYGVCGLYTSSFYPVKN
Text: as §6, §7, §8, §9

[10] = tested on: gingipain R (RGP); test: Gingipain assay, BAPNA cleavage at 405 nm; format: biochemical, human; settings: 2 mM BAPNA, cell marked (IC50) in the Ki [nM] table
Description: All assays were carried out in a 96 well microtiter plate reader and cleavage of BAPNA (Nα-benzoyl-DL-arginine-p-nitroanilide hydrochloride) was detected at 405 nm.
All assays were performed as follows: 180 μl assay buffer (50 mM Tris, […], at pH 7.6) was mixed with 10 μl gingipain R (RGP). The mixture was incubated for 5 min. at room temperature to reduce and activate RGP. 10 μl of each inhibitor were added at various concentrations. These mixtures were incubated for 10 min. at room temperature to allow the inhibitors to complex with RGP. 50 μl of 10 mM BAPNA substrate was added. A two minute assay was performed with a final volume of 250 μl, and a final BAPNA concentration of 2 mM.
For this reason, two minute assays were performed whereby the Vmax in mOD/min change in absorbance at 405 nm was used as the initial velocity reading. In order to titrate RGP against leupeptin and to determine % activity, these velocity readings were transformed on a percent scale where the 100% control contained no inhibitor. The initial velocity values were also entered into Graphpad Prism regression program along with the various inhibitor concentrations to obtain the IC50 values. All data represents the minimum of duplicates, and at times triplicate sets.

[11] = target: T7, cathepsin L (Homo sapiens, UniProt P07711); test: Cathepsin L inhibition, fluorometric assay with Cbz-Phe-Arg-NHMec; format: biochemical; settings: human enzyme; IC50 at substrate << Km taken as Ki; pH 5.5
T7 construct: purchased Athens Research and Technology Inc. (Athens,Ga.)
Text: as §6, §7, §8, §9

[12] = tested on: TNFα; test: THP-1 assay: TNFα levels after LPS stimulation; format: cell-based, human; settings: THP-1 cells, results not shown
Text: as §1, §4, §5

[13] = 20 μM Ac-DEVD-pNA, 37° C., read-out: Ki, FLICE (Mch5, Caspase 8)

Chain of granzyme B (P10144 21-247, species assumed): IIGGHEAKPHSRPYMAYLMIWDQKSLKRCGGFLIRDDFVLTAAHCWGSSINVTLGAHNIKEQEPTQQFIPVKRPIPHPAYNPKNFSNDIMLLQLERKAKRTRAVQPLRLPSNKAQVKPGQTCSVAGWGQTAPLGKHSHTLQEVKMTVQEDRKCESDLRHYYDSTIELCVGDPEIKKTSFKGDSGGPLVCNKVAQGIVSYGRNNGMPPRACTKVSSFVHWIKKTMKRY
Chain of FLICE (Mch5, Caspase 8) (Q14790 217-374 limits assumed, species assumed): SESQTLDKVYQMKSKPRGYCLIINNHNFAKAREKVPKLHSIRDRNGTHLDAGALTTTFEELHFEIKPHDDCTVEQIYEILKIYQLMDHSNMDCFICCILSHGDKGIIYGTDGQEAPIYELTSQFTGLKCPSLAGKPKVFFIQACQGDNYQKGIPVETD
Chain of FLICE (Mch5, Caspase 8) (Q14790 385-479 limits assumed, species assumed): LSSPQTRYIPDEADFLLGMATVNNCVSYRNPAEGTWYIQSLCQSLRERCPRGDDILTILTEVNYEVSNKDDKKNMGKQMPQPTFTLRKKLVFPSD
T7 sequence (P07711 114-333): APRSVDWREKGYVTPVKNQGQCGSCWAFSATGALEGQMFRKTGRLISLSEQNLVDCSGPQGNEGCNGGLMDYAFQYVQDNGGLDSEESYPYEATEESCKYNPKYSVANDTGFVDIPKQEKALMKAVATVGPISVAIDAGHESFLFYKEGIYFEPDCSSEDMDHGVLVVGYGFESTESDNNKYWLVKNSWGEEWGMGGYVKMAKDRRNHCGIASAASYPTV

Structure (SMILES) | IC50 [1] [nM] | Ki, Granzyme [2] | IC50 [3] [nM] | Ki [4] [nM] | Ki [5] [nM] | Ki [6, 13] [nM] | Ki, Lap3 (Mch3, Caspase 7) [7] | Ki [8] [nM] | Ki [9] [nM] | IC50 [10] [nM] | Ki [11] [nM] | effect on levels of TNFα produced [12] | inhibition of IL-1β production ([3]; at 5 μM, THP-1 cells (FIG. 1)) | Ki ([6]; read-out: Ki, FLICE) [nM] | potency in inhibiting IL1β production relative to CQ-0010 (fold less) ([3]; THP-1 cells (FIG. 1; Table 4)) | Ki [7] [nM]
CC(=O)N[C@@H](Cc1ccc(O)cc1)C(=O)N[C@H](C(=O)N[C@@H](C)C(=O)N[C@H](C=O)CC(=O)O)C(C)C [Ac-YVAD-CHO, reference compound] | 300 to 500 | Not Active | 300 | 100000 | 20000 | 3700 | Not Active | – | – | – | – | – | – | – | – | –
CC(=O)N[C@@H](CC(C)C)C(=O)N[C@@H](CC(C)C)C(=O)NC(CCCN=C(N)N)C(=O)c1nnc(-c2ccccc2)o1 (some centres unmarked) [CQ-0002] | – | – | – | – | – | – | – | 324 ± 46 | 1200 | 28 | 6 ± 0.98 | – | – | – | – | –
CC(=O)N[C@@H](Cc1ccc(O)cc1)C(=O)N[C@H](C(=O)N[C@@H](C)C(=O)NC(CC(=O)O)C(=O)c1nnc(-c2ccccc2)o1)C(C)C (stereo partly drawn) [CQ-0010, Acetyl-L-tyrosinyl-L-valyl-N-[1-[2-[(5-phenyl)-1,3,4-oxadiazolyl]carbonyl]-2-carboxy-ethyl]-L-alanine amide] | 300 to 500 | Not Active | 300 | 33000 | 3300 | ≤ 20 | Not Active | – | – | – | – | no dose-dependent effect | almost completely inhibiting | ≤ 20 | – | –
CC(=O)N[C@@H](CC(=O)O)C(=O)N[C@H](C(=O)N[C@@H](CCC(=O)O)C(=O)NC(CC(=O)O)C(=O)c1nnc(-c2ccccc2)o1)C(C)C (stereo partly drawn) [CQ-0011, Acetyl-L-Aspartyl-Valyl-N-[1-[2-[(5-phenyl)-1,3,4-oxadiazolyl]carbonyl]-2-(carboxy)-ethyl]-L-glutamyl amide] | – | Not Active | 3000 | 6700 | ≤ 100 | ≤ 30 | – | – | – | – | – | – | – | – | approximately 10 fold | ≤ 30
CC(=O)N[C@@H](CC(C)C)C(=O)N[C@@H](CC(C)C)C(=O)N[C@H](C=O)CCCNC(=N)N [Leupeptin, reference compound] | – | – | – | – | – | – | – | 6.1 ± 1.2 | 1 ± 0.06 | 20.8 | 0.62 ± 0.1 | – | – | – | – | –
